Key:
[1] = target: Serine/threonine-protein kinase PLK2 (Homo sapiens) (UniProt Q9NYY3); assay: Inhibition of T7 bacteriophage fused human PLK2 at 10 uM by KINOMEscan analysis relative to control
[2] = target: Phosphorylase b kinase gamma catalytic chain, skeletal muscle/heart isoform (Homo sapiens) (UniProt Q16816); assay: Inhibition of T7 bacteriophage fused human PHKG1 at 10 uM by KINOMEscan analysis relative to control
[3] = target: Cyclin-dependent kinase-like 3 (Homo sapiens) (UniProt Q8IVW4); assay: Inhibition of T7 bacteriophage fused human CDKL3 at 10 uM by KINOMEscan analysis relative to control; values are per cent of control
Chain of Cyclin-dependent kinase-like 3 (Homo sapiens) (Q8IVW4 whole entry, looked up, the tested form may be a part): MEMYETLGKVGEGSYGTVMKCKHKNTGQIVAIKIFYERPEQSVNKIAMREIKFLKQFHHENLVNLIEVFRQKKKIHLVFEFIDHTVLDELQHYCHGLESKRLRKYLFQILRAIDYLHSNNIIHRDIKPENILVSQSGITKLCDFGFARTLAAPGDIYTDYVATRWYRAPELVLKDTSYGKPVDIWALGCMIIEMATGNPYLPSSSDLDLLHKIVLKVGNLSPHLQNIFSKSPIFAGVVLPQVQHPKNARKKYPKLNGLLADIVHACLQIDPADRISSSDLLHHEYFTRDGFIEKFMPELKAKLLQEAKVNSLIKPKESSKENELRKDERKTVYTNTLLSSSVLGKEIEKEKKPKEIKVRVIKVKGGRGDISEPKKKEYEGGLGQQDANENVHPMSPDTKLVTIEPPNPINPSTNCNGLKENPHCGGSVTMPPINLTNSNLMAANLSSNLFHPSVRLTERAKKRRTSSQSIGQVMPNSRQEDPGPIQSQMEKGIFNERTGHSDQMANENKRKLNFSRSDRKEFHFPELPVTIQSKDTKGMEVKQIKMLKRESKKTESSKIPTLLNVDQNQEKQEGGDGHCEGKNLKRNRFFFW

[4] = target: Cyclin-dependent kinase 11B (Homo sapiens) (UniProt P21127); assay: Inhibition of T7 bacteriophage fused human CDC2L1 at 10 uM by KINOMEscan analysis relative to control
Chain of Cyclin-dependent kinase 11B (Homo sapiens) (P21127 whole entry, the tested form may be a part): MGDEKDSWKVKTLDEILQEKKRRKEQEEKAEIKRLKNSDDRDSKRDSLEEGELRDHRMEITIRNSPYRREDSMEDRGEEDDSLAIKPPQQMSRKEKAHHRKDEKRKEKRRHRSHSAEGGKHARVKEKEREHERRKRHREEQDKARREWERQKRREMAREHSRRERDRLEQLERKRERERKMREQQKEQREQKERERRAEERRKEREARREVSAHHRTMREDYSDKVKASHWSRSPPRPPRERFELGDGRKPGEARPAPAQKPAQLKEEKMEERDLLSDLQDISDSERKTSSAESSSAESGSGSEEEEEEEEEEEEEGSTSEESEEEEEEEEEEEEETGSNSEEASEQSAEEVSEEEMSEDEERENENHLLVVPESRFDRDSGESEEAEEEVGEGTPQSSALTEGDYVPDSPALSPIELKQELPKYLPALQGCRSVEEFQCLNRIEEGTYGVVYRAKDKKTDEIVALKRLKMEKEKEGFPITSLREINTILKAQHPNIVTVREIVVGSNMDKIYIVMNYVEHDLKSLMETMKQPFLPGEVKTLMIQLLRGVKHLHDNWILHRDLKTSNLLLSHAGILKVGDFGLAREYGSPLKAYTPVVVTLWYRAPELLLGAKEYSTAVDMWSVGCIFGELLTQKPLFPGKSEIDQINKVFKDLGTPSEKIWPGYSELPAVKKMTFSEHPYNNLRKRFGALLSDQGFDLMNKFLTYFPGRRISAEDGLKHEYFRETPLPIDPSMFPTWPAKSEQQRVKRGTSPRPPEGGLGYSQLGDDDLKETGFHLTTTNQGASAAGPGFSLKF

[5] = target: Ribosomal protein S6 kinase alpha-4 (Homo sapiens) (UniProt O75676); assay: Inhibition of T7 bacteriophage fused human C-terminal RPS6KA4 Kinase domain-2 at 10 uM by KINOMEscan analysis relative to control
Chain of Ribosomal protein S6 kinase alpha-4 (Homo sapiens) (O75676 whole entry, looked up, the tested form may be a part): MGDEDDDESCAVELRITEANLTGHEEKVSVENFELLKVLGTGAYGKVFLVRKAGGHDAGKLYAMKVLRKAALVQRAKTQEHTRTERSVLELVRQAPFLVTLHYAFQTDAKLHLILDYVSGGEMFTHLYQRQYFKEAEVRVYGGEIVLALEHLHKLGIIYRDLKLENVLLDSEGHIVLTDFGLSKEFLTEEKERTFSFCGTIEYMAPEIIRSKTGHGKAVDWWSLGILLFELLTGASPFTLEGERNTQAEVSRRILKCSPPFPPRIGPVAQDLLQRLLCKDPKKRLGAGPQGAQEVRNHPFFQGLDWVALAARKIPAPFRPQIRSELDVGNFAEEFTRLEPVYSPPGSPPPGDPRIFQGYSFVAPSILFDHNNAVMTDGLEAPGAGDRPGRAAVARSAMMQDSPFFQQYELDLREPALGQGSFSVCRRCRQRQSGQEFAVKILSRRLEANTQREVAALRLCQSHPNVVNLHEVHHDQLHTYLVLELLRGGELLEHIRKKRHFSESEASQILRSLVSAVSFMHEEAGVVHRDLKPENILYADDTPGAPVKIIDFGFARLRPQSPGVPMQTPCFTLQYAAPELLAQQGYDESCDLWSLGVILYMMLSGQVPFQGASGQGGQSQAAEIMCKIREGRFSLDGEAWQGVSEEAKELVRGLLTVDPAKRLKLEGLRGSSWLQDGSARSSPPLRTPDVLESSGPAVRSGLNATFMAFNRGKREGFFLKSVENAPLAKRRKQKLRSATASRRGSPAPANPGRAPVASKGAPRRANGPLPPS

[6] = target: Ribosomal protein S6 kinase alpha-4 (Homo sapiens) (UniProt O75676); assay: Inhibition of T7 bacteriophage fused human N-terminal RPS6KA4 Kinase domain-1 at 10 uM by KINOMEscan analysis relative to control
[7] = tested on: Epidermal growth factor receptor (Homo sapiens), P00533 [UNDEFINED MUTATION]; assay: Inhibition of T7 bacteriophage fused human EGFR L747/E749del/A750P mutant at 10 uM by KINOMEscan analysis relative to control; values are per cent of control
Chain of Epidermal growth factor receptor (Homo sapiens), P00533 [UNDEFINED MUTATION] (P00533 whole entry, looked up, stated change not applied, the tested form may be a part): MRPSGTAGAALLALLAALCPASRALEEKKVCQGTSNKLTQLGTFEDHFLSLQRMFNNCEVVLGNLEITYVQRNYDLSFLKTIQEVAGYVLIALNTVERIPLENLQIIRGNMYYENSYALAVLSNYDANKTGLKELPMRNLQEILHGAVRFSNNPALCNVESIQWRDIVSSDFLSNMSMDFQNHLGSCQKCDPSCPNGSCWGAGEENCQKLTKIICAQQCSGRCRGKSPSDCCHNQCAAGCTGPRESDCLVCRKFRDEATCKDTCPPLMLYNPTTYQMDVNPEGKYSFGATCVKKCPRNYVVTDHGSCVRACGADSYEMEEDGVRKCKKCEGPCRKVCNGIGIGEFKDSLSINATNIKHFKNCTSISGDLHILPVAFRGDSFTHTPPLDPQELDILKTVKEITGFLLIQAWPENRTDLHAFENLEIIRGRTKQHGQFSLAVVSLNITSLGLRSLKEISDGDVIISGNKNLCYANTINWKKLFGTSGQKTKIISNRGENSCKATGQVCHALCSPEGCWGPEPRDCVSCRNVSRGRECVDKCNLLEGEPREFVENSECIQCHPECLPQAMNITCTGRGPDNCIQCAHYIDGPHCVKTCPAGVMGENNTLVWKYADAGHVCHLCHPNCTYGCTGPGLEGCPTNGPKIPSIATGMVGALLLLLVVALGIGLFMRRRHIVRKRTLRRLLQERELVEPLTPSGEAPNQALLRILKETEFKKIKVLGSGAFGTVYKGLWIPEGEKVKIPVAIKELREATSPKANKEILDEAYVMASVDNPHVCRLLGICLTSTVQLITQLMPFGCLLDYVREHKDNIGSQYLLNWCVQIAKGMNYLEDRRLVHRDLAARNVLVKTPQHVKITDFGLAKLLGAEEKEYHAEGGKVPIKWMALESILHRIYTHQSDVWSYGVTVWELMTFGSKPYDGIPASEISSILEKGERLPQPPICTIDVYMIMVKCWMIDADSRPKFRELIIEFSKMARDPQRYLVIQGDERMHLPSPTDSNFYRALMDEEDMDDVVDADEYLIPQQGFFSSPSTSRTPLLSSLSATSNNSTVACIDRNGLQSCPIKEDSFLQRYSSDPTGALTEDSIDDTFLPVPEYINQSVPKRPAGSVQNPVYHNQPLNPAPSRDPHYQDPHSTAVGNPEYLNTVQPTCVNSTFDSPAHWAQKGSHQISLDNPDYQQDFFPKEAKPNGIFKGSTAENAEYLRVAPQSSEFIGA

[8] = target: Ephrin type-A receptor 5 (Homo sapiens) (UniProt P54756); assay: Inhibition of T7 bacteriophage fused human EPHA5 at 10 uM by KINOMEscan analysis relative to control; values are per cent of control
Chain of Ephrin type-A receptor 5 (Homo sapiens) (P54756 whole entry, the tested form may be a part): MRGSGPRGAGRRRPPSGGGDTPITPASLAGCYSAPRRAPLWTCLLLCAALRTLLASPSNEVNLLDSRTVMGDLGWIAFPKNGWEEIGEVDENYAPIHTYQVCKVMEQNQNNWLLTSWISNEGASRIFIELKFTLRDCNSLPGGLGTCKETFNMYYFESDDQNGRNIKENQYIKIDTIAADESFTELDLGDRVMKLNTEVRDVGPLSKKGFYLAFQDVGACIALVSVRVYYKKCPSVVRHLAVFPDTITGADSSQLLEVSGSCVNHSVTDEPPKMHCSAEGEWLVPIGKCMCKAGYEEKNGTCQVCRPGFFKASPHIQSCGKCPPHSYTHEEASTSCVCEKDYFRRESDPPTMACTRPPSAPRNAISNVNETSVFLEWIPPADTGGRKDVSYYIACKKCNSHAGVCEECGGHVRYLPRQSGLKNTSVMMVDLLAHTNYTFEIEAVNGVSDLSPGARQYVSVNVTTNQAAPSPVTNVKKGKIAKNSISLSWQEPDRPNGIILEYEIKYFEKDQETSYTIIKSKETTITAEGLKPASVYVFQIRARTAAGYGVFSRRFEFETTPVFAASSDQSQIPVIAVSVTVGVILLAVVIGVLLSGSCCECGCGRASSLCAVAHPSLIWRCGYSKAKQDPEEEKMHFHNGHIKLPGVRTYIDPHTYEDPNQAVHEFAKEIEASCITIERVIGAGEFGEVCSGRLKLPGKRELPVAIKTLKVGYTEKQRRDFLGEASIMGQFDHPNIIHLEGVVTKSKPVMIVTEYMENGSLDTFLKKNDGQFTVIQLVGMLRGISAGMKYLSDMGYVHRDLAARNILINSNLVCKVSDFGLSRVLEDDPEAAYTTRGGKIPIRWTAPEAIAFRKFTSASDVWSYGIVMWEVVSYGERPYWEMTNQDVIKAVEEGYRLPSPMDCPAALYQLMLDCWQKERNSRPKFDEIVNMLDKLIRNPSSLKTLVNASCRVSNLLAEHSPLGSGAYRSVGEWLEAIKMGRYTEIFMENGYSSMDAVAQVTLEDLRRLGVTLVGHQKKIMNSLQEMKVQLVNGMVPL

[9] = target: Receptor tyrosine-protein kinase erbB-3 (Homo sapiens) (UniProt P21860); assay: Inhibition of T7 bacteriophage fused human ERBB3 at 10 uM by KINOMEscan analysis relative to control

Chain of Phosphorylase b kinase gamma catalytic chain, skeletal muscle/heart isoform (Homo sapiens) (Q16816 whole entry, looked up, the tested form may be a part, canonical isoform): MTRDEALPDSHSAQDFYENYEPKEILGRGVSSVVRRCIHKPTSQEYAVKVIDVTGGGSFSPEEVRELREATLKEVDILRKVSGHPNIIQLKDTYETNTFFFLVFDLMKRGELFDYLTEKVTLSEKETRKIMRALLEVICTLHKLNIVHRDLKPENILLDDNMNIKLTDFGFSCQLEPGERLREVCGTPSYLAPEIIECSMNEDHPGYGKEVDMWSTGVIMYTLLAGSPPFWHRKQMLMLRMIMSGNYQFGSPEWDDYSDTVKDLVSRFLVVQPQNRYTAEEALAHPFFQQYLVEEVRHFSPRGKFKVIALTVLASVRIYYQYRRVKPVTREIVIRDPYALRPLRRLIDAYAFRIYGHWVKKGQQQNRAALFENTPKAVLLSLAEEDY

## COc1cc(N2CCC(N3CCN(C)CC3)CC2)ccc1Nc1ncc2c(n1)N(C)c1ccccc1C(=O)N2C
[1]
  inhibition: 100%
[2]
  inhibition: 54%
[3]
  residual activity: 83%
[4]
  inhibition: 84%
[5]
  inhibition: 46%
[6]
  inhibition: 100%
[7]
  residual activity: 78%
[8]
  residual activity: 95%
[9]
  inhibition: 100%
